For assay [1], the system named is dexamethasone-stimulated mouse primary bone marrow cell cultures. Nature of the assay: Alkaline phosphatase colorimetry, dexamethasone-stimulated osteogenic cell maturation (test A). In kind it is cell-based. To be noted: positive control, 0.1 nM estrogen. The protocol:
Under sterile condition, C57BL/6j (male, 15-20 g, 4-6 weeks old) were sacrificed, and their femoral bones were injected with alpha-minimal essential medium (α-MEM) culture medium (Gibco, N.Y., USA) so as to flush out the bone marrow cells. The collected cells in α-MEM culture medium were then filtered through a sterile No. 53 nylon mesh so as to obtain a single cell suspension.
The mouse bone marrow cells (1.5×10^5 nucleated cells/well) as prepared in the above Procedure (I) were placed into 96-well culture plates and incubated in α-MEM supplemented with 15% FCS, 10 μM dexamethazone, 50 μg/ml ascorbic acid, and 10 mM sodium, β-glycerophosphate. After incubation at 37° C. for 48 hrs, extracts of Polygonum multiflorum Thunb. root with different concentrations (0.01 μg/ml, 0.1 μg/ml, 1 μg/ml, 10 μg/ml, 100 μg/ml and 1000 μg/ml) were added into the wells of the culture plates, respectively. […]
The alkaline phosphatase (AP) colorimetry (Aubin, J. E. et al. (1995), Bone, 17: 77S-83S; Sabokbar, A. et al. (1994), Bone & Mineral, 27: 57-67) was conducted as follows: The culture medium in each well of the culture plates was removed, and the remaining cells were added with 120 μl of 0.01% SDS and incubated in a 37° C. incubator for 10 minutes. […] After a reaction time of 10-15 minutes at 37° C., the culture plates were subjected to absorbance detection at O.D. 405 nm.

Assay [2] deals with EGF-stimulated bone marrow cells. The assay is described as follows: MTT assay, proliferation of EGF-stimulated bone marrow cells. The assay is classed as cell-based, mouse. To be noted: positive control, 50 ng/ml EGF. The method, then: Under sterile condition, C57BL/6j (male, 15-20 g, 4-6 weeks old) were sacrificed, and their femoral bones were injected with DMEM/F12 culture medium (Gibco, N.Y. USA) so as to flush out the bone marrow cells. The collected cells in DMEM/F12 culture medium were then filtered through a sterile No. 53 nylon mesh so as to obtain a single cell suspension, the cell concentration of which was subsequently adjusted to 6×10^5 cells/ml with DMEM/F12 culture medium containing N2 supplement (Sigma, Mo., USA).
The mouse bone marrow cells (1.5×10^5 nucleated cells/well) as prepared in the above Procedure (I) were placed into 96-well culture plates and incubated in 200 μl of a defined medium (DMEM/F12 plus N2 supplement) supplemented with EGF (at a final concentration of 10 ng/ml). After incubation at 37° C. for 24 hrs, different concentrations (0.01 μg/ml, […], 1 μg/ml, 10 μg/ml and 100 μg/ml) of the extracts of Polygonum multiflorum Thunb. root obtained in Example 1 were added into the wells of the culture plates, respectively. […]
Subsequently, MTT assay was performed. […] The culture plates were allowed to stand for 14 hours and then subjected to absorbance detection using a microplate reader at O.D. 550 nm-O.D. 690 nm. […] The obtained experimental data were analyzed by Student's t-test.
On the technique in general: Tetrazolium assays rely on reduction of a dye to a coloured formazan, in cell work by metabolically active cells.

Assay [3] deals with mGM-CSF-stimulated mouse primary bone marrow cultures. Nature of the assay: MTT assay, mGM-CSF-stimulated proliferation of bone marrow cultures. The conditions noted are these: positive control, mGM-CSF 20 ng/ml. In kind it is cell-based. The protocol: Subsequently, MTT assay was performed. Each well of the culture plates was added with a MTT solution (5 mg/ml dissolved in 1×PBS) to a final concentration of 1 mg/ml. Four hours later, each well of the culture plates was added with a MTT lysis buffer (20% sodium dodecyl sulfate (SDS) in 50% dimethylformamide (DMF)/50% H2O) in an amount of 150 μl/well. The culture plates were allowed to stand for 14 hours and then subjected to absorbance detection using a microplate reader at O.D. 550 nm-O.D. 690 nm. Each experiment was conducted in duplicate, and n=6 wells for each group. The obtained experimental data were analyzed by Student's t-test.
The mouse bone marrow cells (1.5×10^5 nucleated cells/well) prepared according to the procedures set forth in Procedure (I) of Example 5 were placed into 96-well culture plates and incubated in RPMI supplemented with 5% FCS and mGM-CSF (at a final concentration of 2 ng/ml). After incubation at 37° C. for 24 hrs, extracts of the Polygonum multiflorum Thunb. root with different concentrations (0.1 μg/ml, 1 μg/ml, 10 μg/ml and 100 μg/ml) were added into the wells of the culture plates, respectively. The positive control group was treated with 20 ng/ml mGM-CSF, and the negative control group was treated with 2 ng/ml mGM-CSF. […]

For estrogen, the AP activity index in assay [1] is 1.28.

“EGF: epidermal growth factor, 50 ng/ml positive control”: in assay [2], the Proliferation index is reported as 1.26 (±0.13).

B1: mGM-CSF: granulocyte-monocyte colony stimulating factor, 20 ng/ml positive control (protein, UniProt P01587 18-141, looked up)
Granulocyte-macrophage …: APTRSPITVTRPWKHVEAIKEALNLLDDMPVTLNEEVEVVSNEFSFKKLTCVQTRLKIFEQGLRGNFTKLKGALNMTASYYQTYCPPTPETDCETQVTTYADFIDSLKTFLTDIPFECKKPGQK
In assay [3], B1 returned a Proliferation index of 2.05.

Source of the values: patent publication US8168236B2, “Extracts of Polygonum multiflorum thunb., and preparation process and uses of the same” (National Yang-Ming University, priority 2003, dated 2012).
